The compounds below were run against IDO (Homo sapiens, UniProt P14902) (assay: LLE_IDO_ABS_DR (IDO assay)).
Chain of IDO (P14902 whole entry): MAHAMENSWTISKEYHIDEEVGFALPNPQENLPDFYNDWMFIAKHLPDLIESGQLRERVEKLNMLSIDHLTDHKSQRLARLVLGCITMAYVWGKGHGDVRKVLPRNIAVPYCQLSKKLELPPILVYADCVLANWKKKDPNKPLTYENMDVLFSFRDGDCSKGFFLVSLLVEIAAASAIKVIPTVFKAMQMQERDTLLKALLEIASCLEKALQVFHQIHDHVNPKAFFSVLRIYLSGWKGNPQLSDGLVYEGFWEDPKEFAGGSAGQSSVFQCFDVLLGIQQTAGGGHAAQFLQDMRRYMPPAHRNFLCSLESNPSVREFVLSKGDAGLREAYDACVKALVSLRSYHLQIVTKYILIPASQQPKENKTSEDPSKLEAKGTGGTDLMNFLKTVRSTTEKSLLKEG

| SMILES | IC50 |
| --- | --- |
| Cc1ccc(NC(=O)Nc2cc(-c3ccccc3C(=O)O)ccc2N(CCC(F)(F)F)CC2CC2)cc1 [Example 64, 4′-((cyclopropylmethyl) (3,3,3-trifluoropropyl)amino)-3′-(3-p-tolylureido)biphenyl-2-carboxylic acid] | 290 nM |
| COc1ccc(-c2ccc(N(CCC(F)(F)F)CC3CC3)c(NC(=O)Nc3ccc(C)cc3)c2)cc1C(=O)O [Example 65, 4′-((cyclopropylmethyl) (3,3,3-trifluoropropyl)amino)-4-methoxy-3′-(3-p-tolylureido) biphenyl-3-carboxylic acid] | 3700 nM |
| Cc1ccc(NC(=O)Nc2cc(-c3ccccc3-c3nnn[nH]3)ccc2N(CC2CC2)CC2CC2)cc1 [Example 66, 1-(4-(bis(cyclopropyl-methyl)amino)-2′-(1H-tetrazol-5-yl)biphenyl-3-yl)-3-p-tolylurea] | 30 nM |
| Cc1ccc(NC(=O)Nc2cc(-c3ccccc3C(=O)O)ccc2N(CC2CC2)CC2CC2)cc1 [Example 67, 4′-(bis (cyclopropylmethyl)amino)-3′-(3-p-tolylureido)biphenyl-2-carboxylic acid] | 350 nM |
| CC(C)CN(CC(C)C)c1ccc(-c2ccc(F)cc2C(=O)O)cc1NC(=O)Nc1ccccc1Cl [Example 68, 3′-(3-(2-chlorophenyl)ureido)-4′-(diisobutylamino)-4-fluorobiphenyl-2-carboxylic acid] | 560 nM |
| Cc1ccccc1NC(=O)Nc1cc(-c2cccc(F)c2C(=O)O)ccc1N(CC(C)C)CC(C)C [Example 69, 4′-(diisobutylamino)-3-fluoro-3′-(3-o-tolylureido)biphenyl-2-carboxylic acid] | 890 nM |
| Cc1ccc(NC(=O)Nc2cc(-c3ccc(F)cc3C(=O)O)ccc2N(CC(C)C)CC(C)C)cc1 [Example 70, 4′-(diisobutylamino)-4-fluoro-3′-(3-p-tolylureido)biphenyl-2-carboxylic acid] | 110 nM |
| COc1ccc(-c2ccc(N(CC(C)C)CC(C)C)c(NC(=O)Nc3ccc(C)cc3)c2)c(NS(=O)(=O)C(F)(F)F)c1 [Example 71, N-(4′-(diisobutylamino)-4-methoxy-3′-(3-p-tolylureido)biphenyl-2-yl)-1,1,1-trifluoromethane-sulfonamide] | 1740 nM |
| CCN(CCOC)c1ccc(-c2ccccc2C(=O)O)cc1NC(=O)Nc1ccc(C)cc1 [Example 72, 4′-(ethyl(2-methoxyethyl)amino)-3′-(3-p-tolylureido)biphenyl-2-carboxylic acid] | 850 nM |
| CCN(CCOC)c1ccc(-c2ccccc2-c2nnn[nH]2)cc1NC(=O)Nc1ccc(C)cc1 [Example 73, 1-(4-(ethyl(2-methoxyethyl)amino)-2′-(1H-tetrazol-5-yl)biphenyl-3-yl)-3-p-tolylurea] | 150 nM |
| Cc1ccc(NC(=O)Nc2cc(-c3ccccc3NS(C)(=O)=O)ccc2N(CC(C)C)CC(C)C)cc1 [Example 74, N-(4′-(diisobutylamino)-3′-(3-p-tolylureido)biphenyl-2-yl) methanesulfonamide] | 5770 nM |
| CCN(c1ccc(-c2ccccc2-c2nnn[nH]2)cc1NC(=O)Nc1ccc(C)cc1)C1CCCC1 [Example 75, 1-(4-(cyclopentyl(ethyl)amino)-2′-(1H-tetrazol-5-yl)biphenyl-3-yl)-3-p-tolylurea] | 3.24 nM |
| CCN(c1ccc(-c2ccccc2C(=O)O)cc1NC(=O)Nc1ccc(C)cc1)C1CCCC1 [Example 76, 4′-(cyclopentyl(ethyl)amino)-3′-(3-p-tolylureido)biphenyl-2-carboxylic acid] | 20 nM |
| CCN(c1ccc(-c2ccc(OC)c(C(=O)O)c2)cc1NC(=O)Nc1ccc(C)cc1)C1CCCC1 [Example 77, 4′-(cyclopentyl(ethyl)amino)-4-methoxy-3′-(3-p-tolylureido) biphenyl-3-carboxylic acid] | 3260 nM |
| COc1ccc(-c2ccc(N(C)C3CCCCCC3)c(NC(=O)Nc3ccc(C)cc3)c2)cc1C(=O)O [Example 78, 4′-(cycloheptyl(methyl)amino)-4-methoxy-3′-(3-p-tolylureido)biphenyl-3-carboxylic acid] | 1920 nM |
| Cc1ccc(NC(=O)Nc2cc(-c3ccccc3-c3nnn[nH]3)ccc2N(C)C2CCCCCC2)cc1 [Example 79, 1-(4-(cycloheptyl(methyl)amino)-2′-(1H-tetrazol-5-yl)biphenyl-3-yl)-3-p-tolylurea] | 1.81 nM |
| Cc1ccc(NC(=O)Nc2cc(-c3ccccc3C(=O)O)ccc2N(C)C2CCCCCC2)cc1 [Example 80, 4′-(cycloheptyl(methyl)amino)-3′-(3-p-tolylureido)biphenyl-2-carboxylic acid] | 8.75 nM |
| Cc1ccc(NC(=O)Nc2cc(-c3ccc(F)cc3NS(=O)(=O)C(F)(F)F)ccc2N(CC(C)C)CC(C)C)cc1 [Example 81, N-(4′-(diisobutylamino)-4-fluoro-3′-(3-p-tolylureido)biphenyl-2-yl)-1,1,1-trifluoromethane-sulfonamide] | 270 nM |
| Cc1ccc(NC(=O)Nc2cc(-c3ccccc3-c3nnn[nH]3)ccc2N(CC2CC2)C2CCCCC2)cc1 [Example 82, 1-(4-(cyclohexyl (cyclopropylmethyl)amino)-2′-(1H-tetrazol-5-yl)biphenyl-3-yl)-3-p-tolylurea] | 3.8 nM |
| Cc1ccc(NC(=O)Nc2cc(-c3ccccc3C(=O)O)ccc2N(CC2CC2)C2CCCCC2)cc1 [Example 83, 4′-(cyclohexyl (cyclopropylmethyl)amino)-3′-(3-p-tolylureido)biphenyl-2-carboxylic acid] | 20 nM |
| Cc1ccc(NC(=O)Nc2cc(-c3ccccc3NS(=O)(=O)CC(F)(F)F)ccc2N(CC(C)C)CC(C)C)cc1 [Example 84, N-(4′-(diisobutylamino)-3′-(3-p-tolylureido)biphenyl-2-yl)-2,2,2-trifluoroethane-sulfonamide] | 2110 nM |
| CCCN(c1ccc(-c2ccccc2-c2nnn[nH]2)cc1NC(=O)Nc1ccc(C)cc1)C1CCCCC1 [Example 85, 1-(4-(cyclohexyl(propyl)amino)-2′-(1H-tetrazol-5-yl)biphenyl-3-yl)-3-p-tolylurea] | 1.65 nM |
| CCCN(c1ccc(-c2ccccc2C(=O)O)cc1NC(=O)Nc1ccc(C)cc1)C1CCCCC1 [Example 86, 4′-(cyclohexyl(propyl)amino)-3′-(3-p-tolylureido)biphenyl-2-carboxylic acid] | 4.16 nM |
| CCCN(c1ccc(-c2cc(F)ccc2C(=O)O)cc1NC(=O)Nc1ccc(C)cc1)C1CCCCC1 [Example 87, 4′-(cyclohexyl (propyl)amino)-5-fluoro-3′-(3-p-tolylureido) biphenyl-2-carboxylic acid] | 3.68 nM |
| CCCCN(CCCC)c1ccc(-c2ccccc2-c2nnn[nH]2)cc1NC(=O)Nc1ccc(C)cc1 [Example 88, 1-(4-(dibutylamino)-2′-(1H-tetrazol-5-yl)biphenyl-3-yl)-3-p-tolylurea] | 9.82 nM |
| CCCCN(CCCC)c1ccc(-c2ccccc2C(=O)O)cc1NC(=O)Nc1ccc(C)cc1 [Example 89, 4′-(dibutylamino)-3′-(3-p-tolylureido) biphenyl-2-carboxylic acid] | 50 nM |
| CCCCN(CCCC)c1ccc(-c2cc(F)ccc2C(=O)O)cc1NC(=O)Nc1ccc(C)cc1 [Example 90, 4′-(dibutylamino)-5-fluoro-3′-(3-p-tolylureido)biphenyl-2-carboxylic acid] | 10 nM |
| CCCCN(CCCC)c1ccc(-c2sccc2C(=O)O)cc1NC(=O)Nc1ccc(C)cc1 [Example 91, 2-(4-(dibutylamino)-3-(3-p-tolylureido)phenyl)thiophene-3-carboxylic acid] | 60 nM |

Source: patent publication US9758492B2, “IDO inhibitors” (Bristol-Myers Squibb Company, priority 2013, dated 2017)
